In patent US9051330B2, “Dithiolopyrrolones with therapeutic activity” (Welichem Biotech Inc., priority 2002, dated 2015):
Read-outs that look alike come from different tables or passages of the source.

How the values were obtained:
Format in all cases: cell-based, human
Ovcar-3 cell line = assay: NCI standard anti-proliferative test, ovarian cancer Ovcar-3 cells
Text: (§1) These assays are commonly used by those skilled in the art and are accepted as indicative of antiproliferative activity in mammals. The antiproliferative activities of the compounds of the invention have been determined in cell cultures of human ovarian cancer, using a standard anti-proliferative test of the US National Cancer Institute (NCI). [Monks, A. et al., J. Natl. Cancer Inst. 83(11): 757-766, 1991].
The novel compound had activity against 56 cancer cell lines of a wide range of major cancers. (Table 1a).

H460 = assay: NCI standard anti-proliferative test, H460 cells
UACC-257 = assay: NCI anti-proliferative test, Melanoma UACC-257
NCI-H322M = assay: NCI anti-proliferative test, Non-Small Cell Lung Cancer NCI-H322M
ACHN = assay: NCI anti-proliferative test, Renal Cancer ACHN
COLO 205 = assay: NCI anti-proliferative test, Colon Cancer COLO 205
NCI-H522 = assay: NCI anti-proliferative test, Non-Small Cell Lung Cancer NCI-H522
KM12 = assay: NCI anti-proliferative test, Colon Cancer KM12
EKVX = assay: NCI anti-proliferative test, Non-Small Cell Lung Cancer EKVX
TK-10 = assay: NCI anti-proliferative test, Renal Cancer TK-10
NCI-H226 = assay: NCI anti-proliferative test, Non-Small Cell Lung Cancer NCI-H226
MALME-3M = assay: NCI anti-proliferative test, Melanoma MALME-3M
HL-60(TB) = assay: NCI anti-proliferative test, Leukemia HL-60(TB)
A498 = assay: NCI anti-proliferative test, Renal Cancer A498
HT29 = assay: NCI anti-proliferative test, Colon Cancer HT29
MDA-MB-435 = assay: NCI anti-proliferative test, Breast Cancer MDA-MB-435
OVCAR-5 = assay: NCI anti-proliferative test, Ovarian Cancer OVCAR-5
Text: as §1

MCF7 = assay: NCI anti-proliferative test, Breast Cancer MCF7
BT-549 = assay: NCI anti-proliferative test, Breast Cancer BT-549
T-47D = assay: NCI anti-proliferative test, Breast Cancer T-47D
SN12C = assay: NCI anti-proliferative test, Renal Cancer SN12C
DU-145 = assay: NCI anti-proliferative test, Prostate Cancer DU-145
SK-MEL-28 = assay: NCI anti-proliferative test, Melanoma SK-MEL-28
NCI-H23 = assay: NCI anti-proliferative test, Non-Small Cell Lung Cancer NCI-H23
SK-MEL-5 = assay: NCI anti-proliferative test, Melanoma SK-MEL-5
SK-MEL-2 = assay: NCI anti-proliferative test, Melanoma SK-MEL-2
SF-539 = assay: NCI anti-proliferative test, CNS Cancer SF-539
NCI/ADR-RES = assay: NCI anti-proliferative test, Breast Cancer NCI/ADR-RES
RXF 393 = assay: NCI anti-proliferative test, Renal Cancer RXF 393
786-0 = assay: NCI anti-proliferative test, Renal Cancer 786-0
SF-268 = assay: NCI anti-proliferative test, CNS Cancer SF-268
HCC-2998 = assay: NCI anti-proliferative test, Colon Cancer HCC-2998
SNB-19 = assay: NCI anti-proliferative test, CNS Cancer SNB-19
LOX IMVI = assay: NCI anti-proliferative test, Melanoma LOX IMVI
MDA-MB-231/ATCC = assay: NCI anti-proliferative test, Breast Cancer MDA-MB-231/ATCC
UO-31 = assay: NCI anti-proliferative test, Renal Cancer UO-31
SR = assay: NCI anti-proliferative test, Leukemia SR
SF-295 = assay: NCI anti-proliferative test, CNS Cancer SF-295
HS 578T = assay: NCI anti-proliferative test, Breast Cancer HS 578T
HOP-62 = assay: NCI anti-proliferative test, Non-Small Cell Lung Cancer HOP-62
CAKI-1 = assay: NCI anti-proliferative test, Renal Cancer CAKI-1
HCT-15 = assay: NCI anti-proliferative test, Colon Cancer HCT-15
HCT-116 = assay: NCI anti-proliferative test, Colon Cancer HCT-116
A549/ATCC = assay: NCI anti-proliferative test, Non-Small Cell Lung Cancer A549/ATCC
HOP-92 = assay: NCI anti-proliferative test, Non-Small Cell Lung Cancer HOP-92
IGROV1 = assay: NCI anti-proliferative test, Ovarian Cancer IGROV1
Text: as §1

M14 = assay: NCI anti-proliferative test, Melanoma M14
MOLT-4 = assay: NCI anti-proliferative test, Leukemia MOLT-4
PC-3 = assay: NCI anti-proliferative test, Prostate Cancer PC-3
K-562 = assay: NCI anti-proliferative test, Leukemia K-562
OVCAR-8 = assay: NCI anti-proliferative test, Ovarian Cancer OVCAR-8
Text: as §1

UACC-62 = assay: NCI anti-proliferative test, Melanoma UACC-62
U251 = assay: NCI anti-proliferative test, CNS Cancer U251
RPMI-8226 = assay: NCI anti-proliferative test, Leukemia RPMI-8226
SW-620 = assay: NCI anti-proliferative test, Colon Cancer SW-620
CCRF-CEM = assay: NCI anti-proliferative test, Leukemia CCRF-CEM
[1] = ovarian cancer cells Ovcar-3, comparison with XN3
[2] = cancer cell line H460, read-out: IC50 H460

COc1ccc(-n2c3cssc-3c(NC(=O)Cc3cccs3)c2=O)c(OC)c1 [Compound 0037]
IC50 (Ovcar-3 cell line; [1]): 71 nM

COc1ccc(-n2c3cssc-3c(NC(=O)CCC(=O)O)c2=O)c(OC)c1 [BLI-031-2]
IC50 (H460; [2]): > 50000 nM

COc1ccc(-n2c3cssc-3c(NC(=O)c3ccc(F)c(F)c3F)c2=O)c(OC)c1 [Compound R4]
IC50 (Ovcar-3 cell line; [1]): 46 nM

COc1ccc(-n2c3cssc-3c(NC(=O)c3ccc(C(F)(F)F)cc3)c2=O)c(OC)c1 [BLI-093]
IC50 (Ovcar-3 cell line; [1]): 54 nM

COc1ccc(-n2c3cssc-3c(NC(=O)c3cc(C(F)(F)F)cc(C(F)(F)F)c3)c2=O)c(OC)c1 [Compound 0058]
IC50 (UACC-257): 150 nM
IC50 (H460; Non-Small Cell Lung Cancer, NCI-H460, 56 cell line panel, read-out: IC50): 260 nM
IC50 (NCI-H322M): 8560 nM
IC50 (ACHN): 140 nM
IC50 (COLO 205): 150 nM
IC50 (NCI-H522): 190 nM
IC50 (KM12): 2970 nM
IC50 (EKVX): 130 nM
IC50 (TK-10): 1370 nM
IC50 (NCI-H226): 270 nM
IC50 (MALME-3M): 190 nM
IC50 (HL-60(TB)): 19 nM
IC50 (A498): 190 nM
IC50 (HT29): 50 nM
IC50 (MDA-MB-435): 220 nM
IC50 (OVCAR-5): 450 nM
IC50 (MCF7): 170 nM
IC50 (BT-549): 150 nM
IC50 (T-47D): 13 nM
IC50 (SN12C): 120 nM
IC50 (DU-145): 13 nM
IC50 (SK-MEL-28): 16 nM
IC50 (NCI-H23): 210 nM
IC50 (SK-MEL-5): 120 nM
IC50 (SK-MEL-2): 180 nM
IC50 (SF-539): 180 nM
IC50 (NCI/ADR-RES): 1040 nM
IC50 (RXF 393): 40 nM
IC50 (786-0): 60 nM
IC50 (Ovcar-3 cell line; Ovarian Cancer, OVCAR-3, 56 cell line panel): 30 nM
IC50 (Ovcar-3 cell line; [1]): 34 nM
IC50 (SF-268): 140 nM
IC50 (HCC-2998): 110 nM
IC50 (SNB-19): 230 nM
IC50 (LOX IMVI): 14 nM
IC50 (MDA-MB-231/ATCC): 130 nM
IC50 (UO-31): 200 nM
IC50 (SR): 20 nM
IC50 (SF-295): 230 nM
IC50 (HS 578T): 220 nM
IC50 (HOP-62): 130 nM
IC50 (CAKI-1): 440 nM
IC50 (HCT-15): 20 nM
IC50 (HCT-116): 16 nM
IC50 (A549/ATCC): 420 nM
IC50 (HOP-92): 180 nM
IC50 (IGROV1): 170 nM
IC50 (M14): 240 nM
IC50 (MOLT-4): 150 nM
IC50 (PC-3): 40 nM
IC50 (K-562): 19 nM
IC50 (OVCAR-8): 170 nM
IC50 (UACC-62): 190 nM
IC50 (U251): 150 nM
IC50 (RPMI-8226): < 10 nM
IC50 (SW-620): 34 nM
IC50 (CCRF-CEM): < 10 nM

COc1ccc(-n2c3cssc-3c(NC(=O)c3cccs3)c2=O)c(OC)c1 [WBL-007]
IC50 (Ovcar-3 cell line; [1]): 28 nM

COc1ccc(-n2c3cssc-3c(NC(=O)c3ccc([N+](=O)[O-])cc3)c2=O)c(OC)c1 [Compound 0038]
IC50 (Ovcar-3 cell line; [1]): 68 nM

COc1ccc(-n2c3cssc-3c(NC(=O)c3ccc(F)cc3)c2=O)c(OC)c1 [WBL-018]
IC50 (Ovcar-3 cell line; [1]): 70 nM

COc1ccc(-n2c3cssc-3c(NC(=O)c3ccc(CN4CCNCC4)cc3)c2=O)c(OC)c1 [Compound 0069]
IC50 (H460; [2]): 40 nM

COc1ccc(-n2c3cssc-3c(NC(=O)c3cc(F)cc(F)c3)c2=O)c(OC)c1 [Compound R3]
IC50 (Ovcar-3 cell line; [1]): 78 nM
